Results as given in article PMC12128024, “Copper(II) Cyclopeptides with High ROS-Mediated Cytotoxicity” (Bioconjugate Chemistry, 2025).
*1 amine or outer side, *2 acyl side, *3 side chain or, on linkers, in order; H or OH if unused. Where a SMILES comes first, the peptide text is derived from it. [ ]: non-standard residue; d: D form. X1 = O=C(c1ccc(-c2ccc(N[*:1])cn2)nc1)[*:2]; βAla = NCCC(=O)O

What was measured:
[1] = Fluorescence titration of cyclopeptides with Cu(II) ions (DynaFit fit); format: binding; details: 2 μM cyclopeptide, 1 mM phosphate buffer, 10 mM NaCl, pH 6.5; 1: 1:2 model (cyclopeptide:metal); 2: simplified model with 1:1 and 2:1 species; read-out: global dissociation constant K D
Description: While the 2,2′-bipyridine ligand is known to be weakly emissive and for all practical purposes considered nonfluorescent, , the 5′-amido-[2,2′-bipyridine]-5-carboxamide unit in the βAlaBpy building block is highly emissive, displaying an intense emission band at c.a. 410 nm with a quantum yield of 0.37. Furthermore, the fluorescence of the βAlaBpy units is quenched upon coordination to a wide range of divalent transition metal ions. We exploited this property to monitor the coordinative properties of cyclopeptides 1 and 2 in the presence of labile Cu(II) ions in aqueous media. Thus, we measured the emission spectra of 2 μM solutions of the cyclopeptides 1 and 2 in 1 mM phosphate buffer and 10 mM NaCl, pH 6.5, upon excitation at 308 nm in the presence of increasing concentrations of Cu(II) ions. […] Therefore, the affinity of the first part of the titrations cannot be determined with this experiment as it is too strong. […]
5.2. Fluorescence titration experiments
Luminescence experiments were made with a Varian Cary Eclipse Fluorescence spectrophotometer coupled to a Cary Single Cell Peltier accessory (Agilent Technologies) temperature controller. […]
emission spectrum was recorded (λex= 308 nm; λem= 410 nm) after each addition. […]

NCI/ADR-RES cells = experiment: Intracellular ROS generation (ROS Assay Stain 1X); format: cell-based; details: 100 μM compound with 125 μM H2O2, 1-5 h and 24 h, 1/Cu(II) equimolar
Procedure: Measurement of intracellular ROS levels in NCI/ADR-RES cells treated with Cu(II) ions, cyclopeptide 1, or the 1/Cu(II) metallopeptide system confirmed a time-dependent increase in the level of ROS generation. In short, after 24 h of incubation, cells were stained with ROS Assay Stain 1× and treated with 100 μM Cu(II) (CuCl2·2H2O), cyclopeptide 1, or 1/Cu(II), along with 125 μM H2O2, and fluorescence was recorded (λex = 495/λem = 520 nm) every hour for the first 5 h and again at 24 h. The experiment with the metallopeptide system was conducted by using equimolar amounts of cyclopeptide 1 and Cu(II) to prevent an excess of free copper in the medium. […] The cytotoxicity of the metallopeptide systems appears to be closely linked to their ability to enhance intracellular oxidative stress via increased ROS production, likely driven by Cu(II) accumulation within the cells.
9.2. […]
NCI/ADR-RES cells were seeded in a 96 well plate (Thermo Scientific 165305) at a density of 2,5 x 10^5 cells/ml. […] The fluorescence was measured in a microplate reader every hour for the first 5 hours, and again at 24 hours after the addition of the compounds (λex= 495 nm / λem= 520 nm). […]
Figure S15. […] Fluorescence (λex= 495 nm / λem= 520 nm) was recorded every hour for the first 5 hours, and again at 24 hours after the addition of the compounds to assess intracellular ROS generation. […]

For `N=C(N)NCCC[C@@H]1NC(=O)c2ccc(nc2)-c2ccc(cn2)NC(=O)CCNC(=O)[C@H](CCCNC(=N)N)NC(=O)[C@H](CCCNC(=N)N)NC(=O)[C@H](CCCNC(=N)N)NC(=O)c2ccc(nc2)-c2ccc(cn2)NC(=O)CCNC(=O)[C@H](CCCNC(=N)N)NC(=O)[C@H](CCCNC(=N)N)NC1=O` [compound 1, cyclo-(βAlaBpy-Arg3)2] (cyclo([X1]RRR[βAla][X1]RRR[βAla])), the Kd [1] was 0.39 ± 0.19 µM and the “intracellular ROS levels (fluorescence)” value (NCI/ADR-RES cells) was “also promotes ROS generation, albeit to a lesser extent”.
